Experiment: O2 evolution from RuO2.xH2O-catalysed decomposition of H2O2 with stabilizer
Assay type: physicochemical
Procedure: A 50% strength aqueous solution of H2O2 (304 mg; 4.46 mmol) was added to 454 mg (4.46 mmol) of methyl pyruvate and to 535 mg (4.46 mmol) of glyoxylic methyl ester methyl hemiacetal, respectively. In the case of methyl pyruvate, a marked evolution of heat was discovered during the addition. After one hour, the H2O2/α-keto ester mixture was mixed with 1 ml of solvent and added to a suspension of 2.5 mg of RuO2.xH2O catalyst (Aldrich) in 4 ml of solvent. The suspension was introduced into a 50 ml flask which was maintained at room temperature in a water bath.
As a comparison, a suspension of 2.5 mg of RuO2.xH2O catalyst (Aldrich) in 4 ml of solvent was combined with a 50% strength aqueous solution of H2O2 (304 mg; 4.46 mmol) and 1 ml of solvent without stabilizer.
The amount of oxygen which […] the decomposition of the hydrogen peroxide was determined as a function of time using a Brooks meter, which permitted measurement of the gas flow and of the total amount of evolved gas.
The amount of oxygen is defined here as % of the maximum amount to be calculated on the basis of stoichiometry.

Measured: O2 evolution V(O2) (Vmax(O2)*100%)

COC(=O)C(O)OC (stereo not shown) [GMHA, glyoxylic methyl ester methyl hemiacetal]
13%: solv. water, t 10 min | solv. water, t 15 min | solv. water, t 20 min | solv. water, t 25 min | solv. water, t 30 min | solv. water, t 35 min | solv. water, t 40 min
2%: solv. acetic acid, t 3 min | solv. acetic acid, t 4 min | solv. acetic acid, t 5 min | solv. acetic acid, t 10 min | solv. acetic acid, t 15 min | solv. acetic acid, t 20 min | solv. acetic acid, t 25 min | solv. acetic acid, t 30 min | solv. acetic acid, t 35 min | solv. acetic acid, t 40 min
6%: solv. ethyl acetate, t 3 min | solv. water, t 4 min
0%: solv. acetic acid, t 1 min | solv. acetone, t 1 min | solv. acetone, t 2 min | solv. acetone, t 3 min | solv. acetone, t 4 min | solv. acetone, t 5 min | solv. acetone, t 10 min | solv. acetone, t 15 min | solv. acetone, t 20 min | solv. acetone, t 25 min | solv. acetone, t 30 min | solv. acetone, t 35 min | solv. acetone, t 40 min | solv. methanol, t 1 min | solv. methanol, t 2 min | solv. methanol, t 3 min | solv. methanol, t 4 min | solv. methanol, t 5 min | solv. methanol, t 10 min | solv. methanol, t 15 min | solv. methanol, t 20 min | solv. methanol, t 25 min | solv. methanol, t 30 min | solv. methanol, t 35 min | solv. methanol, t 40 min | solv. t-butanol, t 1 min | solv. t-butanol, t 2 min | solv. t-butanol, t 3 min | solv. t-butanol, t 4 min | solv. t-butanol, t 5 min | solv. t-butanol, t 10 min | solv. t-butanol, t 15 min | solv. t-butanol, t 20 min | solv. t-butanol, t 25 min | solv. t-butanol, t 30 min | solv. t-butanol, t 35 min | solv. t-butanol, t 40 min
3%: solv. acetonitrile, t 1 min | solv. acetonitrile, t 2 min | solv. acetonitrile, t 3 min | solv. acetonitrile, t 4 min | solv. acetonitrile, t 5 min | solv. acetonitrile, t 10 min | solv. acetonitrile, t 15 min | solv. acetonitrile, t 20 min | solv. acetonitrile, t 25 min | solv. acetonitrile, t 30 min | solv. acetonitrile, t 35 min | solv. acetonitrile, t 40 min | solv. ethyl acetate, t 1 min | solv. water, t 1 min
8%: solv. ethyl acetate, t 5 min
9%: solv. ethyl acetate, t 10 min | solv. ethyl acetate, t 15 min | solv. ethyl acetate, t 20 min | solv. ethyl acetate, t 25 min | solv. ethyl acetate, t 30 min | solv. ethyl acetate, t 35 min | solv. ethyl acetate, t 40 min
5%: solv. ethyl acetate, t 2 min | solv. water, t 3 min
1%: solv. acetic acid, t 2 min
4%: solv. water, t 2 min
7%: solv. ethyl acetate, t 4 min
10%: solv. water, t 5 min

COC(=O)C(C)=O [methyl pyruvate]
17%: solv. water, t 2 min
18%: solv. acetonitrile, t 2 min | solv. t-butanol, t 10 min
40%: solv. acetonitrile, t 10 min | solv. ethyl acetate, t 25 min | solv. water, t 10 min
30%: solv. acetonitrile, t 5 min | solv. water, t 5 min
21%: solv. t-butanol, t 15 min
55%: solv. water, t 25 min | solv. water, t 30 min | solv. water, t 35 min | solv. water, t 40 min
9%: solv. acetonitrile, t 1 min | solv. water, t 1 min
51%: solv. acetonitrile, t 20 min | solv. water, t 20 min
0%: solv. acetic acid, t 1 min | solv. acetic acid, t 2 min
37%: solv. ethyl acetate, t 20 min
8%: solv. ethyl acetate, t 1 min
20%: solv. acetone, t 2 min | solv. ethyl acetate, t 5 min
32%: solv. ethyl acetate, t 15 min | solv. methanol, t 5 min
2%: solv. acetic acid, t 5 min | solv. t-butanol, t 1 min
49%: solv. methanol, t 15 min
4%: solv. acetic acid, t 10 min | solv. acetic acid, t 15 min | solv. acetic acid, t 20 min | solv. acetic acid, t 25 min | solv. acetic acid, t 30 min | solv. acetic acid, t 35 min | solv. acetic acid, t 40 min
12%: solv. ethyl acetate, t 2 min
50%: solv. ethyl acetate, t 40 min
5%: solv. t-butanol, t 2 min
47%: solv. acetonitrile, t 15 min | solv. ethyl acetate, t 35 min
19%: solv. methanol, t 2 min
52%: solv. methanol, t 20 min
48%: solv. water, t 15 min
23%: solv. t-butanol, t 20 min
43%: solv. methanol, t 10 min
53%: solv. acetonitrile, t 25 min | solv. acetonitrile, t 30 min | solv. acetonitrile, t 35 min | solv. acetonitrile, t 40 min | solv. methanol, t 25 min | solv. methanol, t 30 min | solv. methanol, t 35 min | solv. methanol, t 40 min
25%: solv. t-butanol, t 25 min | solv. t-butanol, t 30 min | solv. t-butanol, t 35 min | solv. t-butanol, t 40 min
29%: solv. acetone, t 5 min | solv. acetone, t 10 min | solv. acetone, t 15 min | solv. acetone, t 20 min | solv. acetone, t 25 min | solv. acetone, t 30 min | solv. acetone, t 35 min | solv. acetone, t 40 min | solv. ethyl acetate, t 10 min
42%: solv. ethyl acetate, t 30 min
10%: solv. acetone, t 1 min | solv. methanol, t 1 min | solv. t-butanol, t 5 min
